Experimental data published in patent US20260152751A1, “INTERFERING RNA FOR INHIBITING JAK1 GENE EXPRESSION AND USE THEREOF” (Jenkem Technology Co., Ltd. (BEIJING), priority 2024, published 2026).
[Ψ] = pseudouridine; d = 2'-deoxy (DNA); r = 2'-OH (RNA)

test system: JAK1 gene; assay: siRNA screening: qPCR of JAK1 relative expression in transfected 293T cells; assay type: cell-based, human; details: siRNA 50 nM, 48 h after transfection, GAPDH reference, siNC = 100.00
Protocol: (§1) One day prior to transfection, 293T cells were seeded into a 24-well cell culture plate at 1×10^5 cells/well, and the culture medium was 500 μL of DMEM containing 10% FBS and 1% penicillin-streptomycin. Three replicate wells were made for each group. The culture plate was placed in an incubator with 5% CO2 at 37° C. for 24 h to allow the cells to adhere to the wall. On the day of transfection, the culture medium was changed to 450 μL of DMEM culture medium without antibiotics (containing 10% FBS). The siRNAs were diluted with 25 μL of Opti-MEM culture medium, and the control group was siNC at the same concentration; a Lipofectamine™RNAiMAX transfection reagent (Lip) was diluted with another 25 μL of Opti-MEM culture medium, and the mixture was left to stand at room temperature for 5 min; and the two dilutions were uniformly mixed and left to stand at room temperature for 5 min. 50 μL of the mixed solution described above was added to each well to obtain a final transfection volume of 500 μL, and the working concentration of the siRNA was 50 nM. After the cells were further cultured in an incubator with 5% CO2 at 37° C. for 48 h, the total RNA of the cells was extracted.
RNA was extracted using Eastep™ Super total RNA extraction kit, with the detailed procedures as follows:
1) 300 μL of RNA lysis solution and 300 μL of RNA diluent were added into each well of the 24-well cell culture plate, and the mixture was uniformly mixed and subsequently transferred to a 1.5 mL centrifuge tube. The mixture was centrifuged at 14000 g for 10 min, and the supernatant was carefully pipetted into a new 1.5 mL centrifuge tube.
2) A 0.5-fold volume of absolute ethanol was added, and the mixture was uniformly mixed by allowing the tube to be repeatedly upside down 15-20 times. Subsequently, the mixture was transferred to a centrifuge column and centrifuged at 12000 g for 1 min. The filtrate was discarded.
3) 600 μL of RNA wash buffer was added, and the mixture was centrifuged at 12000 g for 1 min. The filtrate was discarded.
4) 50 μL of DNase I incubation buffer was added, followed by DNA digestion at room temperature for 15 min.
5) 600 μL of RNA wash buffer was added, the mixture was centrifuged at 12000 g for 1 min, and the filtrate was discarded. This procedure was repeated once. Subsequently, the mixture was centrifuged at 14000 g for 2 min to remove the residual RNA wash buffer, and then the centrifuge column was placed in a collection tube.
6) A proper amount of RNase-free H2O was added, and the mixture was left to stand for 15 min at room temperature, followed by centrifugation at 14000 g for 1 min. The RNA quality and concentration were detected using NanoDrop™. The extracted RNA was incubated at 70° C. for 5 min and immediately placed in an ice bath for 5 min for later use.
(§2) 1) The RNA was reverse-transcribed into a cDNA template using the All-in-One First-Strand Synthesis MasterMix (LABLEAD, Cat. No.: F0202) kit. The reaction system was established according to Table 2, where all components were mixed uniformly and centrifuged to collect the liquid at the bottom of a tube, and the PCR program was run according to the settings of 37° C. for 2 min, 55° C. for 15 min, and 85° C. for 5 min, thereby giving the cDNA template.
(§3) 2) The gene expression level was detected using the Taq SYBR® Green qPCR Premix (LABLEAD, Cat. No.: R0202) kit, and the qPCR system was established according to Table 3. All components were mixed uniformly and centrifuged to collect the liquid at the bottom of a tube, and the PCR program was run according to the following settings: • Step1: 95° C. 30 s; • Step2: 95° C. 10 s; • Step3: 60° C. 30 s+Plate Read; • Step4: Go to Step2, 40 times; • Step5: Melt Curve 65 to 95° C., increment 0.5° C., for 5 s+Plate Read.
(§4) GAPDH was used as an endogenous reference to detect the relative expression level of JAK1 gene, and the sequences of the primers used are as follows: […]

How did the “Relative expression level of JAK1, Mean value (Mean)” value (shortened to “Relative expression level of JAK1”) turn out when “siJAK1-3283: siRNA targeting JAK1; sense strand SEQ ID NO: 20 dTdT, antisense strand SEQ ID NO: 34 dTdT (sense AGAACAUUGUGAAGUACAA; antisense UUGUACUUCACAAUGUUCU; listed as RNA, chemistry not fully specified)” was run?
Its value is 16.41.

With “siJAK1-4627: siRNA targeting JAK1; sense strand SEQ ID NO: 26 dTdT, antisense strand SEQ ID NO: 40 dTdT (sense GCAUGUUAAUUCUCAAGAA; antisense UUCUUGAGAAUUAACAUGC; listed as RNA, chemistry not fully specified)” as the substance, how does the “Relative expression level of JAK1” value read?
The value was 38.64.

“siJAK1-826: siRNA targeting JAK1; sense strand SEQ ID NO: 16 dTdT, antisense strand SEQ ID NO: 30 dTdT (sense GGCAUGGAACCAACGACAA; antisense UUGUCGUUGGUUCCAUGCC; listed as RNA, chemistry not fully specified)” was tested. Which “Relative expression level of JAK1” value did it give?
Its value is 14.18.

Which “Relative expression level of JAK1” value does the source give for “siJAK1-474: siRNA targeting JAK1; sense strand SEQ ID NO: 15 dTdT, antisense strand SEQ ID NO: 29 dTdT (sense GAAUAAAUGCAGUAUCUAA; antisense UUAGAUACUGCAUUUAUUC; listed as RNA, chemistry not fully specified)” here?
Its value is 20.24.

For “siNC: non-targeting control sequence; sense strand SEQ ID NO: 43, antisense strand SEQ ID NO: 44 (sense UUCUCCGAACGUGUCACGUTT; antisense ACGUGACACGUUCGGAGAATT; Bought control siRNA with 3' TT overhangs, chemistry not given here, further chemistry not given here) [reference compound]”, which “Relative expression level of JAK1” value is on record?
The value was 100.00.

How did the “Relative expression level of JAK1” value turn out when “siJAK1-5026: siRNA targeting JAK1; sense strand SEQ ID NO: 27 dTdT, antisense strand SEQ ID NO: 41 dTdT (sense GAUUCAAUGUGAACGAUUA; antisense UAAUCGUUCACAUUGAAUC; listed as RNA, chemistry not fully specified)” was run?
Its value is 32.40.

“siJAK1-4410: siRNA targeting JAK1; sense strand SEQ ID NO: 25 dTdT, antisense strand SEQ ID NO: 39 dTdT (sense CAGUAUCUAUACAGUACUA; antisense UAGUACUGUAUAGAUACUG; listed as RNA, chemistry not fully specified)” was tested. Which “Relative expression level of JAK1” value did it give?
Its value is 24.41.

Which “Relative expression level of JAK1” value does the source give for “siJAK1-2200: siRNA targeting JAK1; sense strand SEQ ID NO: 18 dTdT, antisense strand SEQ ID NO: 32 dTdT (sense GUUUCGAUCGGAUCCUCAA; antisense UUGAGGAUCCGAUCGAAAC; listed as RNA, chemistry not fully specified)” here?
The value was 34.77.

For “siJAK1-3630: siRNA targeting JAK1; sense strand SEQ ID NO: 21 dTdT, antisense strand SEQ ID NO: 35 dTdT (sense GAAUGUUUAAUGCAAUCUA; antisense UAGAUUGCAUUAAACAUUC; listed as RNA, chemistry not fully specified)”, which “Relative expression level of JAK1” value is on record?
Its value is 25.58.

How did the “Relative expression level of JAK1” value turn out when “siJAK1-4389: siRNA targeting JAK1; sense strand SEQ ID NO: 24, antisense strand SEQ ID NO: 38 (sense GGACUUAGCCCUCAAAUUUCA; antisense AAAUUUGAGGGCUAAGUCCAU; listed as RNA, chemistry not fully specified)” was run?
The value was 27.56.

How did the “Relative expression level of JAK1” value turn out when “siJAK1-4096: siRNA targeting JAK1; sense strand SEQ ID NO: 22 dTdT, antisense strand SEQ ID NO: 36 dTdT (sense GGCACACUGUAGUGCUUAA; antisense UUAAGCACUACAGUGUGCC; listed as RNA, chemistry not fully specified)” was run?
Its value is 38.56.

With “siJAK1-4359: siRNA targeting JAK1; sense strand SEQ ID NO: 23, antisense strand SEQ ID NO: 37 (sense CACAUUAAUCAUAGAUAAAGA; antisense UUUAUCUAUGAUUAAUGUGCC; listed as RNA, chemistry not fully specified)” as the substance, how does the “Relative expression level of JAK1” value read?
The value was 31.11.

For “siJAK1-5034: siRNA targeting JAK1; sense strand SEQ ID NO: 28, antisense strand SEQ ID NO: 42 (sense GAACGAUUACGGUCUUUAUGA; antisense AUAAAGACCGUAAUCGUUCAC; listed as RNA, chemistry not fully specified)”, which “Relative expression level of JAK1” value is on record?
Its value is 35.89.

For “siJAK1-2714: siRNA targeting JAK1; sense strand SEQ ID NO: 19 dTdT, antisense strand SEQ ID NO: 33 dTdT (sense GGUGCUGUCUAGGCAAGAA; antisense UUCUUGCCUAGACAGCACC; listed as RNA, chemistry not fully specified)”, which “Relative expression level of JAK1” value is on record?
The value was 19.12.

“siJAK1-1131: siRNA targeting JAK1; sense strand SEQ ID NO: 17, antisense strand SEQ ID NO: 31 (sense GCGAUAUAUUCCAGAAACAUU; antisense UGUUUCUGGAAUAUAUCGCUU; listed as RNA, chemistry not fully specified)” was tested. Which “Relative expression level of JAK1” value did it give?
The value was 23.55.

test system: JAK1 gene; assay: qPCR of JAK1 expression in HaCaT cells transfected with modified siJAK1; assay type: cell-based, human; details: siRNA 50 nM, 48 h after transfection, JAK1 by qPCR, siNC = 100.00
Protocol: as §1, §2, §3, §4
According to the method described in Example 2, human keratinocyte HaCaT cells were transfected with the modified siJAK1 at an siRNA working concentration of 50 nM. The expression level of JAK1 was detected by qPCR 48 h after the transfection. The controls included siNC and unmodified siJAK1 at the same concentration.

With “siJAK1-3283: siRNA targeting JAK1; sense strand SEQ ID NO: 20 dTdT, antisense strand SEQ ID NO: 34 dTdT (sense AGAACAUUGUGAAGUACAA; antisense UUGUACUUCACAAUGUUCU; listed as RNA, chemistry not fully specified)” as the substance, how does the “Relative expression level, Mean value (Mean)” value read?
Its value is 14.73.

Which “Relative expression level, Mean value (Mean)” value does the source give for “siJAK1-826: siRNA targeting JAK1; sense strand SEQ ID NO: 16 dTdT, antisense strand SEQ ID NO: 30 dTdT (sense GGCAUGGAACCAACGACAA; antisense UUGUCGUUGGUUCCAUGCC; listed as RNA, chemistry not fully specified)” here?
The value was 13.33.

How did the “Relative expression level, Mean value (Mean)” value turn out when “siNC: non-targeting control sequence; sense strand SEQ ID NO: 43, antisense strand SEQ ID NO: 44 (sense UUCUCCGAACGUGUCACGUTT; antisense ACGUGACACGUUCGGAGAATT; Bought control siRNA with 3' TT overhangs, chemistry not given here, further chemistry not given here) [reference compound]” was run?
Its value is 100.00.

“siJAK1-826-m4: pseudouridine-modified siJAK1-826; sense strand SEQ ID NO: 49, antisense strand SEQ ID NO: 53 (sense GGCAUGGAACCAACGACAAUU; antisense UUGUCGUUGGUUCCAUGCCTT; sense: sugars from the 5' end r19 d2, [Ψ] at 5, backbone and T or U not given here; antisense: sugars from the 5' end r19 d2, [Ψ] at 1, 2, 4, 7, 8, 11, 12, 16, backbone not given here)” was tested. Which “Relative expression level, Mean value (Mean)” value did it give?
Its value is 13.55.

Which “Relative expression level, Mean value (Mean)” value does the source give for “siJAK1-3283-m10: pseudouridine-modified siJAK1-3283; sense strand SEQ ID NO: 50, antisense strand SEQ ID NO: 54 (sense AGAACAUUGUGAAGUACAATT; antisense UUGUACUUCACAAUGUUCUTT; sense: sugars from the 5' end r19 d2, [Ψ] at 7, 8, 10, 15, backbone not given here; antisense: sugars from the 5' end r19 d2, [Ψ] at 1, 2, 4, 7, 8, 14, 16, 17, 19, backbone not given here)” here?
Its value is 15.89.
